US12252701B2, “Chimeric antigen receptor T cell therapy” (KITE PHARMA, INC., priority 2020, dated 2025)

What was measured:
JAK1 = JAK1 (Homo sapiens, UniProt P23458); test: JAK kinase inhibition biochemical assay (Kinase-Glo Plus luminescence), JAK1; conditions: for IC50: 10 μM ATP
Protocol: (§1) JAK kinase inhibition in vitro biochemical assays were performed using Kinase-Glo Plus luminescence kinase assay kit (Promega). Kinase activity was measured by quantitating the amount of ATP remaining in solution following a kinase reaction. Luminescent signal from the assay was correlated with the amount of ATP present and was inversely correlated with the amount of kinase activity. Compounds were diluted in 10% DMSO and 5 μl of the dilution were added to a 50 μl reaction so that the final concentration of DMSO was 1% in all of the reactions. […] All enzymatic reactions were conducted at 30° C. for 45 minutes. The 50 μl reaction mixture contained 40 mM Tris, pH 7.4, 10 mM MgCl2, 0.1 mg/ml BSA, 1 mM DTT, 10 μM ATP, Kinase substrate and the enzyme. After the enzymatic reaction, 50 μl of Kinase-Glo Plus Luminescence kinase assay solution (Promega) were added to each reaction and incubated in the plate for 15 minutes at room temperature. Luminescence signal was measured using a Bio-Tek Synergy 2 microplate reader. Kinase activity was performed in duplicate at each concentration and data were analyzed using Graphpad Prism. The difference between luminescence intensities in the absence of Kinase (Lut) and in the presence of Kinase (Luc) was defined as 100% activity (Lut−Luc). Using luminescence signal (Lu) in the presence of the compound, % activity was calculated as: % activity={Lut−Lu)/(Lut−Luc)}×100%, where Lu=the luminescence intensity in the presence of compound.

JAK2 = JAK2 (Homo sapiens, UniProt O60674); test: JAK kinase inhibition biochemical assay (Kinase-Glo Plus luminescence), JAK2; conditions: 10 μM ATP
Protocol: as §1, with “The 50 μl reaction mixture contained 40 mM Tris, pH 7.4, 10 mM MgCl2, 0.1 mg/ml BSA, 1 mM DTT, 10 μM ATP, Kinase substrate and the enzyme.” left out

JAK3 = target: T1, JAK3 (Homo sapiens, UniProt P52333); test: JAK kinase inhibition biochemical assay (Kinase-Glo Plus luminescence), JAK3
T1 sequence (P52333 1-1124): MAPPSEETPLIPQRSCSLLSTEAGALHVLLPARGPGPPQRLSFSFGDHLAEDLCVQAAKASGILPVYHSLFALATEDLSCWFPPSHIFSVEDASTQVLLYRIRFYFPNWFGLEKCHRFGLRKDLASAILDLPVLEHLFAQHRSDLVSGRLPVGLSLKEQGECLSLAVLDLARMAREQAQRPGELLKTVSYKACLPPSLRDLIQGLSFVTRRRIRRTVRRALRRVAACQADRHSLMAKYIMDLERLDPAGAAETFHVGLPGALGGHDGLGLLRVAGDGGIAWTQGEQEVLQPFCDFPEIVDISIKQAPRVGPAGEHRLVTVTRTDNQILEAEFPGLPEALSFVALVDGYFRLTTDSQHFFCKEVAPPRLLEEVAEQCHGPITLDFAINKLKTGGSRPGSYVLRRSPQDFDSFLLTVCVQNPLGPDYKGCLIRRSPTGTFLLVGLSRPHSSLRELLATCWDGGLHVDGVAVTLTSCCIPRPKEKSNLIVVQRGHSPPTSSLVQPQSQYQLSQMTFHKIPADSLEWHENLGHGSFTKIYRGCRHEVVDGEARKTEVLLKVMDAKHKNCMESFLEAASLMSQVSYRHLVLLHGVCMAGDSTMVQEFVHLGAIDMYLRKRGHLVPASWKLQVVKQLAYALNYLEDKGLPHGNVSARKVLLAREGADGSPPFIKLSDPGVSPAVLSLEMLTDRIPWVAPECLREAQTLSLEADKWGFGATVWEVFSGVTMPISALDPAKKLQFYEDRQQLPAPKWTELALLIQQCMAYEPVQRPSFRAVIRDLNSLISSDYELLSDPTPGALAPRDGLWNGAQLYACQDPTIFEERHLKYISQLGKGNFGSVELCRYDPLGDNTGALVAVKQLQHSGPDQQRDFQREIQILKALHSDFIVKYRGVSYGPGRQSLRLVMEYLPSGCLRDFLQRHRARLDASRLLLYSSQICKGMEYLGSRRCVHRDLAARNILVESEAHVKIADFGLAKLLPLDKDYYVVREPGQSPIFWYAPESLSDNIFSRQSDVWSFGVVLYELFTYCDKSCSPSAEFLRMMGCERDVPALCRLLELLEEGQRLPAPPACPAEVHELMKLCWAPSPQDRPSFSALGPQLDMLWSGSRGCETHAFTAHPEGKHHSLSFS
Protocol: as §1, with “The 50 μl reaction mixture contained 40 mM Tris, pH 7.4, 10 mM MgCl2, 0.1 mg/ml BSA, 1 mM DTT, 10 μM ATP, Kinase substrate and the enzyme.” left out

[1] = test system: monocyte-derived macrophages; test: Macrophage differentiation and M1/M2 polarization (surface markers by flow cytometry); type: cell-based, human; conditions: for CD209 surface expression in M2 polarized macrophage cultures: compared to normal M2 polarization culture conditions; for skewing of macrophage phenotype amidst M2 polarizing conditions (M1 markers CD38 and HLA-DR): separate experiment
Protocol: Monocytes were prepared from healthy donor PBMCs by negative selection for CD14+ monocytes using MACS (these cryopreserved monocytes provided by […], Alameda, CA) at >95% purity. Monocytes were differentiated into macrophages (M0) using traditional methods. In brief, 1×10^6 monocytes were plated into 12-well plate wells in a total volume of 2 mL macrophage culture media (MCM) (ImmunoCult™-SF Macrophage medium, Stem Cell Technologies) containing 50 ng/ml M-CSF and cultured for 6 days at 37° C./5% CO2. On day 2 of differentiation, cultures were replenished with fresh media and M-CSF. On day 6, a portion of the wells containing differentiated macrophages were replenished with 2 ml of fresh MCM containing 50 ng/ml M-CSF, 100 ng/ml LPS, 20 ng/ml IFNg and cultured for another 48 hours to polarize the macrophage to an M1 macrophage phenotype. Also on day 6, another portion of the wells containing differentiated macrophages were replenished with 2 ml of fresh R10 containing 50 ng/ml M-CSF and 20 ng/ml IL-4 and cultured for another 48 hours to polarize the macrophages to M2 macrophage phenotype. On day 8, all putative polarized macrophages were assessed for M1 and M2-specific surface markers using relevant M1/M2 immunophenotyping panels and flow cytometry. The cell surface markers used to assess monocytes, M0, M1 and M2 macrophage phenotypes included CD14, CD32, CD38, CD80, CD86, CD68, CD163, CD200R1, CD204, CD206, CD209, and HLA-DR.

macrophage = test: Macrophage polarization, M1/M2 phenotypic markers by flow cytometry; type: cell-based
[2] = test system: NALM6.GFP.LUC.CD19 target cells

Chain of JAK1 (P23458 whole entry): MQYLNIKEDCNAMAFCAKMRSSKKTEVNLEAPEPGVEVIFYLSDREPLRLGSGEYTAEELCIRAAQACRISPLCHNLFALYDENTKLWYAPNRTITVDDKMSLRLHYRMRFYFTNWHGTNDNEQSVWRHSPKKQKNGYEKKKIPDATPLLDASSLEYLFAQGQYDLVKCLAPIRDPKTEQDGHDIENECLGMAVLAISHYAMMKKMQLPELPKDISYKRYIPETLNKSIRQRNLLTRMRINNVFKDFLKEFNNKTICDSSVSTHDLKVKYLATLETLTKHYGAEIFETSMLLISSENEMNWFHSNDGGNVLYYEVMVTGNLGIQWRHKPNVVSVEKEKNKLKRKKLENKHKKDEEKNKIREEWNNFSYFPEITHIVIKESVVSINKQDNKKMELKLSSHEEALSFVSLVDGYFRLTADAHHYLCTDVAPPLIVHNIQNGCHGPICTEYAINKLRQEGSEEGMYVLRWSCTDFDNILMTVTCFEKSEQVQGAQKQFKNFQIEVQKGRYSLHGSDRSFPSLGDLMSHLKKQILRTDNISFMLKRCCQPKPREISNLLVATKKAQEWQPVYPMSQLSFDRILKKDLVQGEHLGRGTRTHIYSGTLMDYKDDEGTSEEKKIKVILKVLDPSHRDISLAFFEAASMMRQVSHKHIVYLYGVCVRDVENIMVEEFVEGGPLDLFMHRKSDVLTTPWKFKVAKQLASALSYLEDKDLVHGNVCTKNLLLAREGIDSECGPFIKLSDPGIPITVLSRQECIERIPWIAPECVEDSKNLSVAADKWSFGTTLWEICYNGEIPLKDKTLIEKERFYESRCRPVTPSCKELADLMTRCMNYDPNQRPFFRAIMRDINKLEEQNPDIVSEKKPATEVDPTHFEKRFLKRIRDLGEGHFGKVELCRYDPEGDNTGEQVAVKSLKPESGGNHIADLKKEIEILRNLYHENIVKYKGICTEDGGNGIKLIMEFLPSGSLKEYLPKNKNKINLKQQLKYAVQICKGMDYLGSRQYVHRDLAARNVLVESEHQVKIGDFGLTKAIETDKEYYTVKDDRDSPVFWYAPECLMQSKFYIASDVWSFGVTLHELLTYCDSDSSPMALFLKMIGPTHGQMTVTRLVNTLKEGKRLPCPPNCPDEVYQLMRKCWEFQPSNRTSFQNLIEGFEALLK
Chain of JAK2 (O60674 whole entry): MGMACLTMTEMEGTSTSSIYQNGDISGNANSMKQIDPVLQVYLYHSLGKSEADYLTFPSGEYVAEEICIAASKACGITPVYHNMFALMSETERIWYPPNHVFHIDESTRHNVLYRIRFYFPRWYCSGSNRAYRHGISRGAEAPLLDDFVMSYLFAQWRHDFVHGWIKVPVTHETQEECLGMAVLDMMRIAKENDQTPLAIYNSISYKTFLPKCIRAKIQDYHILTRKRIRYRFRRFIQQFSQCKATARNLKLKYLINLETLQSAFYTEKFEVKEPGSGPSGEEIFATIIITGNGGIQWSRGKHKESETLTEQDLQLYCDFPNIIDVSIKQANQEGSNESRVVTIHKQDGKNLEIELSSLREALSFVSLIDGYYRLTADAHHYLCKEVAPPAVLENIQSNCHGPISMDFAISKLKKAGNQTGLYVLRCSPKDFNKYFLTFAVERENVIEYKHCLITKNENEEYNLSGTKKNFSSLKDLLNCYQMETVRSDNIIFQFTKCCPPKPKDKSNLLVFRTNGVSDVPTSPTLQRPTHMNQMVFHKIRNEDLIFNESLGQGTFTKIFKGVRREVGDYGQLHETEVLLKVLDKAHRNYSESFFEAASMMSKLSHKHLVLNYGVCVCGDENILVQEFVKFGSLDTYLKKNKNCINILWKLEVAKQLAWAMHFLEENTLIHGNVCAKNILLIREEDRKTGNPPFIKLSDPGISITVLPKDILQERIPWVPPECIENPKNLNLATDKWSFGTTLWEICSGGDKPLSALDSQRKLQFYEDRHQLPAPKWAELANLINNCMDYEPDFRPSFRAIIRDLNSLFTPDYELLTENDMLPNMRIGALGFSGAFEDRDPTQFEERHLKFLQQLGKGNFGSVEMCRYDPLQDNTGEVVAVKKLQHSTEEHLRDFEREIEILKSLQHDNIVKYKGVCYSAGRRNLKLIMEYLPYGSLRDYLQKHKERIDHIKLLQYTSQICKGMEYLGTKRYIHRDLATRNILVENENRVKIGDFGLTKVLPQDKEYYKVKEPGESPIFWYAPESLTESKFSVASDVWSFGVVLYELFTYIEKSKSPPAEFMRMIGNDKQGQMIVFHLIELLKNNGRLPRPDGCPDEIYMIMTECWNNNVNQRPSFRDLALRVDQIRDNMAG

SMILES | IC50 (JAK1) | IC50 (JAK2) | CD209 surface expression in M2 polarized macrophage cultures ([1]; 10 μM) | skewing of macrophage phenotype amidst M2 polarizing conditions (M1 markers CD38 and HLA-DR) [1] | other results
Nc1nc2cccc(-c3ccc(CN4CCS(=O)(=O)CC4)cc3)n2n1 [GS-829845] | 448 nM | 2160 nM |  |  | less potency than parent compound filgotinib (JAK1): about 10 fold
N#CCC1(n2cc(-c3ncnc4[nH]ccc34)cn2)CN(C2CCN(C(=O)c3ccnc(C(F)(F)F)c3F)CC2)C1 [itacitinib] | 13 nM | 69 nM |  |  | IC50 (JAK3; 10 μM ATP): 921 nM
C[C@@H]1CCN(C(=O)CC#N)C[C@@H]1N(C)c1ncnc2[nH]ccc12 [tofacitinib] |  |  | No reduction | skewed macrophages away from M2 towards M1 phenotype | 
O=C(Nc1nc2cccc(-c3ccc(CN4CCS(=O)(=O)CC4)cc3)n2n1)C1CC1 [filgotinib] |  |  | No reduction | skewed macrophages away from M2 towards M1 phenotype | activity against JAK3 (JAK3; biochemical assay): limited activity; macrophage polarization (macrophage): promotes polarization of macrophages from M2 to M1 macrophages; inhibition of an M2 polarized phenotype ([1]; 10 μM, compared to no drug/normal M2 polarization culture conditions): stronger inhibition of an M2 polarized phenotype than Tofacitinib; influence on inhibiting M2 polarization by period of use ([1]; 10 μM, during 6-day differentiation versus only during M2 polarization): stronger influence on inhibiting M2 polarization when used during the 6-day macrophage differentiation; inhibiting the formation of an M2 polarized phenotype ([1]; 10 μM, used during both macrophage differentiation and M2 polarization): even stronger
C[C@@H]1C[C@H]2[C@@H]3CCC4=CC(=O)C=C[C@]4(C)[C@@]3(F)[C@@H](O)C[C@]2(C)[C@@]1(O)C(=O)CO [dexamethasone] |  |  |  |  | impact on CAR-T serial killing (percent cytotoxicity) [2]: differential impacts
